Test results taken from paper PMC4190524, “The Flux of Select NSAIDs through Silicone Membranes from Mineral Oil” (Pharmaceutics, 2014).
Read-outs that look alike come from different tables or passages of the source.

How the values were obtained:
[1] = Calculated log partition coefficients; format: physicochemical; settings: data from Wenkers and Lippold 1999; for log KMO:1.0: mineral oil:acidic water (pH 1.0) partition coefficient, calculated from log KOCT:1.0 − log KOCT:MO; for log KOCT:MO: octanol:mineral oil partition coefficient, calculated from log KOCT:1.0 − log KMO:1.0
[2] = Calculated solubilities in octanol, pH 7.4 buffer and acidic water; format: physicochemical; settings: data from Wenkers and Lippold 1999; for log S1.0: solubility in acidic water (pH 1.0), calculated from log SMO − log KMO:1.0; for log SOCT: solubility in octanol, calculated from log KOCT:MO and log SMO; for log S7.4: solubility in pH 7.4 phosphate buffer, calculated from log SOCT − log KOCT:7.4
Protocol: Experimental solubility in mineral oil from Wenkers and Lippold was converted to units of mM from mg/dL. The values of log S7.4 were calculated from log SOCT − log KOCT:7.4, the values of log SOCT were calculated from log KOCT:MO + log SMO, and the values of log S1.0 were calculated from log SMO − log KMO:1.0.

[3] = parameters: method as in Wenkers and Lippold 1999 [6]; settings: log maximum flux through human skin in vivo from mineral oil; ref Wenkers and Lippold 1999 [6]; cited from earlier work
[4] = Maximum flux through silicone membranes from mineral oil (Franz diffusion cells)
[5] = Stability in pH 7.1 phosphate buffer (receptor phase); format: physicochemical; settings: measured after 24 h as salicylic acid
Protocol: Molar extinction coefficients for the compounds in pH 7.1 phosphate buffer, the receptor phase, were determined experimentally. Each compound was initially dissolved in a small volume of acetonitrile (except Diflunisal, which was dissolved in ethanol). These solutions were diluted further with the buffer solution to concentrations that would produce accurate UV absorptions. A plot of absorbance versus concentration produced the slope in units of M^−1. There was only one instance of a major variation in this procedure. […] Thus, the molar extinction coefficient and the concentrations measured after 24 h were that of salicylic acid.

[6] = pH 7.1
[7] = log maximum flux through silicone membrane from mineral oil suspension, 32 °C, pH 7.1 phosphate buffer receptor phase, measured directly

Row | log KMO:1.0 [1] | log KOCT:MO [1] | log S1.0 [2] [mM] | log SOCT [2] [mM] | log S7.4 [2] [mM] | log JMPMO [4, 7] [µmol cm^−2 h^−1] | log JMPMO ([4]; first procedure, 3 h collection intervals) | log JMPMO ([4]; repeat diffusion cell experiment with 2 h collection intervals, receptor phases ≤20% saturation) | log JMPMO [6] [µmol cm^−2 h^−1] | Structure (SMILES) | log JMHMO [3] [µmol cm^−2 h^−1] | stability in phosphate buffer [5]
1 | 0.20 | 1.49 | −0.94 | 0.75 | 0.95 | −2.08 | – | – | – | CN1C(C(=O)Nc2ccccn2)=C(O)c2ccccc2S1(=O)=O [Piroxicam] | −2.40 | –
2 | 2.74 | 1.93 | −2.21 | 2.46 | 0.31 | −0.60 | – | – | – | O=C(O)c1ccccc1Nc1cccc(C(F)(F)F)c1 [Flufenamic Acid] | −1.86 | –
3 | – | – | – | – | – | −1.18 | – | – | – | CC(C(=O)O)c1cccc(C(=O)c2ccccc2)c1 (centres unmarked) [Ketoprofen] | – | –
4 | −2.02 | 3.96 | – | 3.14 | 5.18 | −1.18 | – | – | – | CC(=O)Oc1ccccc1C(=O)O [Aspirin] | −1.72 | readily hydrolyzed to salicylic acid and acetic acid
5 | 2.72 | 0.57 | −1.53 | 1.76 | −1.12 | −1.53 | −1.55 | −1.53 | – | COc1ccc2cc(CCC(C)=O)ccc2c1 [Nabumetone] | −1.10 | –
6 | 3.06 | 1.15 | −0.97 | 3.24 | 2.02 | 0.34 | – | – | – | CC(C)Cc1ccc(C(C)C(=O)O)cc1 (centres unmarked) [Ibuprofen] | −0.25 | –
7 | 1.41 | 2.91 | −2.43 | 1.89 | −0.09 | −1.91 | – | – | – | O=C(O)Cc1ccccc1Nc1c(Cl)cccc1Cl [Diclofenac] | −2.89 | –
8 | 0.88 | 3.36 | −2.05 | 2.19 | 1.61 | −1.69 | – | – | – | O=C(O)c1cc(-c2ccc(F)cc2F)ccc1O [Diflunisal] | −2.44 | –
9 | – | – | – | – | – | – | – | – | −1.46 | COc1ccc2cc([C@H](C)C(=O)O)ccc2c1 [Naproxen] | – | –
